# Where a name gives a salt, the structure may show the parent alone. Read-outs that look alike come from different tables or passages of the source.
# How the values were obtained:
# [1] = system: prolactin; experiment: Prolactin blood level in rats (enzyme immunometric assay); type: in vivo, rat
# Description: Prolactin secretion: Typical neuroleptics induce hyperprolactinemia, which is frequently associated with gallactorehea and impaired gonadal and sexual function. The measurement of the circulatory plasma prolactin level was therefore used as a sensitive biochemical marker for the psychotropic activity of the known neuroleptics and the chemical conjugates of the present invention, following intraperitoneal or oral administration thereof. Thus, blood was collected from the punctured eye orbital of rats under ether anesthesia and the assay was performed using Millennia, rat prolactin enzyme immunometric assay-kit (DPC, USA).
# [2] = system: rats; experiment: Catalepsy in rats, “piano” test, oral administration; type: in vivo, rat
# Protocol: To this end, the induced catalepsy, the prolactin blood levels and the animal behavior were measured as described hereinabove, following oral administration of either AN 168 or perphenazine alone to rats. Animals, divided 5 per cage, were treated by oral administration of perphenazine or AN-168 dissolved in 1% lactic acid. Control animals received vehicle (lactic acid) only.
# The catalepsy induced by oral administration of various concentrations of AN 168 and perphenazine was measured by the “wall” test and the “piano” test described hereinabove. The time course of catalepsy was measured 4-24 hours following oral administration of 2.5, 5, 10 and 20 mg/kg perphenazine and respective equimolar doses of 3.5, 7, 14 and 28 mg/kg AN-168. The total catalepsy represents the sum of average catalepsy per treated group during the 4-24 hours of follow-up.
# [3] = system: B16; experiment: Proliferation test, B16 melanoma cells; type: cell-based, murine
# Protocol: (§1) Cell lines: Human prostate carcinoma (PC-3), human colon carcinoma (HT-29), murine melanoma (B-16) and its drug resistant subclone (B-16 MDR), mouse fibroblasts (3T3), myeloid leukemia (HL 60) and its drug resistant subclone (HL 60 MX2), endometrium cell line (MES SA) and its drug resistant subclone (MES DX5), jurkat T lymphoma and monocyte leukemia (U-937), were used in this study.
# (§2) Proliferation of cancer and normal cells: Proliferation was measured by neutral red assay or by a fluorometric assay quantitating DNA content. In the neutral red assay, the neutral red is absorbed by lysosomes, thus causing coloring of living cells. Quantitative analysis is performed by colorimetric assay (ELISA reader at 550 nm). In the fluorometric assay, alamar blue is used as a redox indicator. Alamar blue fluorescence was measured at an excitation wavelength of 544 nm and an emission wavelength of […] (FLUOstar BMG Lab Technologies, Offenburg, Germany).
# (§3) The cells were sub-cultured and the tested compounds were added thereto in increasing concentrations. The IC50 values were determined by linear regression of the survival percentage of the cells.
# [4] = system: HT-29; experiment: Proliferation test, HT-29 cells; type: cell-based; conditions: Homo sapiens, linear regression of survival percentage
# Protocol: as §1, §2, §3
# [5] = system: PC-3; experiment: Proliferation test, PC-3 cells; type: cell-based; conditions: Homo sapiens, linear regression of survival percentage
# Protocol: as §1, §2, §3
# [6] = system: 3T3; experiment: Proliferation test, 3T3 fibroblasts; type: cell-based; conditions: Mus musculus, NIH3T3; linear regression of survival percentage
# Protocol: as §1, §2, §3
# [7] = system: HL 60 MX2 (MDR); experiment: Proliferation test, HL 60 MX2 (MDR) cells; type: cell-based; conditions: Homo sapiens, HL60/MX2; linear regression of survival percentage
# Protocol: as §1, §2, §3
# [8] = system: U-937; experiment: Proliferation test, U-937 cells; type: cell-based; conditions: Homo sapiens, linear regression of survival percentage
# Protocol: as §1, §2, §3
# [9] = system: C6 rat glioma cells; experiment: Viability of C6 rat glioma cells (neutral red); type: cell-based
# Protocol: as §2
# The cells were sub-cultured and the tested compounds were added thereto in increasing concentrations, up to 100 μM.
# [10] = system: C6 rat glioma cells; experiment: Chemosensitization in C6 rat glioma cells; type: cell-based
# Protocol: Chemosensitization: The chemosensitizing effect of perphenazine and its chemical conjugate AN 168 was measured in vitro. Various concentrations of perphenazine or AN 168 were co-administered together with a chemotherapeutic agent to either C6 rat glioma cells or to Jurkat T lymphoma cells. Cells viability and/or DNA fragmentation following treatment with either the chemotherapeutic agent, perphenazine, AN 168, a combination of the chemotherapeutic agent and perphenazine or a combination of a chemotherapeutic agent with AN 168 were measured as described hereinabove.
# [11] = system: rats; experiment: D-Amphetamine-induced hyperactivity in rats; type: in vivo, rat; conditions: i.p., amphetamine 2.5 mg/kg i.p.
# Protocol: D-Amphetamine-induced hyperactivity in rats: The efficacy of the chemical conjugates of the present invention was studied using the D-amphetamine-induced hyperactivity and motility model, which is known as one of the most established animal models for schizophrenia.
# Naïve Wistar male rats were placed in individual boxes. In each experiment 4 rats were studied. Perphenazine or equimolar doses of its chemical conjugate AN-168 were administered intraperitoneally (ip) to the rats 30 minutes prior to intraperitoneal administration of amphetamine (2.5 mg/kg), or 90 minutes prior to oral administration of amphetamine (2.5 mg/kg). The animals locomotor activity was assessed using two parameters: climbing attempts of the animal on the barrel walls (as big movements) and head movement of the animal (as small movements). Assessment was recorded every 15 minutes for two hours. Each animal was tested at each time point for 120 seconds.
# The climbing behavior of the rats in each group was measured as described hereinabove.
# [12] = Stability upon prolonged storage (NMR); type: physicochemical; conditions: about 3 months storage; NMR spectroscopy
# [13] = system: rats; conditions: rat, in vivo
# Protocol: Animals: Young adult male rats (150-230 grams) were purchased from Harlan (Israel). Animals were divided 2-5/cage and housed in controlled conditions in the animal room for a week prior to the experiments. The experiments were conducted with naive animals, in a double blind procedure. In each experiment various treatment groups (about 5-10 animals each) were tested.
# Catalepsy in rats: The manifestation of the extrapyramidal adverse effects induced by typical neuroleptics was evaluated by the appearance of stereotypic cataleptic behavior in rats following the neuroleptic treatment. Catalepsy was determined by two methods: (i) by measuring the time it took an animal hanging on a cage wall to move its hind legs and reach a flat surface (the “wall” test); and (ii) rats were placed on a flat surface with their anterior limbs leaning on a flat bar (5.5 cm height) resembling a piano playing position. Catalepsy was determined by the time it took an animal to descend and reach the flat surface (the “piano” test). The maximum time of follow up was 2 minutes and these measurements were performed hourly and individually for each animal. These tests provide an assessment of central dopamine (DA) blocking activity and are acceptable criteria for extrapyramidal symptoms induced by anti-psychotic drugs [10].
# A control animals group was treated with the vehicle (lactic acid) only.
# [14] = system: rats; experiment: Behavioral criteria: sedation and mobility score in rats; conditions: score 0-3; for Sedation score: oral, 4-6 hours after treatment
# Protocol: The effect of the administration of the tested compound on animals behavior was measured by evaluating the degree of animal sedation and mobility following the treatment described hereinabove, using a score of from 0 to 3. A score of 0 represents active and mobile animals, 1 represents calm and mobile animals, 2 represents calm and immobile animals and 3 represents completely ataxic and non-alert animals.
# [15] = C6 glioma (MDR) cells, 24 hours (FIG. 14)
compound,measurement,setting,value
"NCCCC(=O)OCCN1CCN(CCCN2c3ccccc3Sc3ccc(Cl)cc32)CC1 [AN-168, Perphenazine 4-aminobutyrate Trihydrochloride]",time at which prolactin blood level peaked,"[1]; i.p., measured at 0, 60 and 120 min after treatment",60 min
same,prolactin blood level compared with perphenazine,"[1]; oral, higher dose, 0, 90, 180 min (FIG. 12)",much higher as compared with animals treated with perphenazine
same,time course of catalepsy,"[2]; oral, 3.5-28 mg/kg AN 168 vs equimolar perphenazine, 4-6 hours (FIG. 8a)",consistent reduction in the cataleptic behavior at all concentrations
same,total catalepsy,"[2]; oral, 5, 10, 20 mg/kg perphenazine, 7, 14, 28 mg/kg AN-168, 4-6 hours (FIGS. 9a, 9b)",consistently lower than that induced by perphenazine
same,"time course of catalepsy, experiments conducted 3 months later","[2]; oral, 14 and 28 mg/kg AN 168, 4-6 hours (FIG. 8b)",higher catalepsy was induces as compared with the proceeding experiments
same,IC50,"[3]; Mus musculus, B16, linear regression of survival percentage",26.8 ± 1.8 µM
same,effect on the proliferation of B16 murine melanoma cells,[3]; representative experiment (FIG. 13),relatively active as anti-proliferative drugs
same,IC50,[4],23.1 ± 9 µM
same,IC50,[5],45.5 µM
same,IC50,[6],25 µM
same,IC50,[7],18.4 µM
same,IC50,[8],14.2 µM
same,anti-proliferative activity in C6 glioma cells,[9]; [15],high anti-proliferative activity
same,concentration causing substantial cell death,[9]; [15],about 20 μM
same,IC50,"[9]; Rattus norvegicus, Glioma cell, 24 hours treatment, neutral red, up to 100 μM (FIG. 14)",24.2 µM
same,"chemosensitizing effect, co-administration with Vincistine","[10]; 24 hours, Vincistine 30 μM, conjugate even at 5 μM (FIG. 16)",substantially enhance the cytotoxic effect thereof
same,"cells viability, combined treatment of Cisplatin and AN 168","[10]; Cisplatin 5-50 μM plus 10 and 15 μM AN 168, neutral red (FIG. 17)",rendered the cells susceptible to the chemotherapeutic drug
same,D-amphetamine-induced climbing behavior,"[11]; AN-168 0.5 or 1.5 mg/kg, two hours (FIGS. 22, 23)",completely antagonized the climbing behavior induced by amphetamine even at low doses
same,D-amphetamine-induced head movements and other small body movement,"[11]; two hours (FIGS. 24, 25)",inferior to that of perphenazine
same,stability upon prolonged storage,[12],"slow decomposition, probably due to hydrolysis, occurred"
same,time course of catalepsy,"[13]; male, ip",no catalepsy through the entire 7 hours period
same,"time course of catalepsy, conjugate versus mixture","[13]; male, ip, 120 min",abolished after 120 minutes
same,average of total catalepsy as percentage of the perphenazine-induced catalepsy,[13],reduced the induced catalepsy to almost a zero value
same,"total catalepsy, conjugate versus mixture",[13]; ip,very low catalepsy
same,"induced catalepsy, SAR studies","[13]; ip, 5 mg/kg",almost maximal reduction of induced catalepsy
same,total catalepsy,"[13]; ip, 5 mg/kg",did not induce catalepsy at all
same,total catalepsy,[13]; po,cataleptic symptoms were almost abolished
same,"sedation and mobility score, 30 min","[14]; i.p., 5 mg/kg perphenazine, 7.5 mg/kg fluphenazine or equimolar conjugate, 30 min",0
same,"sedation and mobility score, 60 min","[14]; i.p., 5 mg/kg perphenazine, 7.5 mg/kg fluphenazine or equimolar conjugate, 60 min",0
same,"sedation and mobility score, 90 min","[14]; i.p., 5 mg/kg perphenazine, 7.5 mg/kg fluphenazine or equimolar conjugate, 90 min",1
same,"sedation and mobility score, 120 min","[14]; i.p., 5 mg/kg perphenazine, 7.5 mg/kg fluphenazine or equimolar conjugate, 120 min",1
same,"sedation and mobility score, 180 min","[14]; i.p., 5 mg/kg perphenazine, 7.5 mg/kg fluphenazine or equimolar conjugate, 180 min",1
same,"sedation and mobility score, 240 min","[14]; i.p., 5 mg/kg perphenazine, 7.5 mg/kg fluphenazine or equimolar conjugate, 240 min",1
same,Sedation score,[14]; 3.5 mg/kg,0
same,Sedation score,[14]; 7 mg/kg,0
same,Sedation score,[14]; 14 mg/kg,1
same,Sedation score,[14]; 28 mg/kg,2
